Experimental data published in paper PMC6273789, “Asperpyrone-Type Bis-Naphtho-γ-Pyrones with COX-2–Inhibitory Activities from Marine-Derived Fungus Aspergillus niger” (Molecules, 2016).

Biological target: T1, COX-2 (Ovis aries, UniProt P79208)
T1 construct: gene PTGS2
T1 sequence (P79208 17-603): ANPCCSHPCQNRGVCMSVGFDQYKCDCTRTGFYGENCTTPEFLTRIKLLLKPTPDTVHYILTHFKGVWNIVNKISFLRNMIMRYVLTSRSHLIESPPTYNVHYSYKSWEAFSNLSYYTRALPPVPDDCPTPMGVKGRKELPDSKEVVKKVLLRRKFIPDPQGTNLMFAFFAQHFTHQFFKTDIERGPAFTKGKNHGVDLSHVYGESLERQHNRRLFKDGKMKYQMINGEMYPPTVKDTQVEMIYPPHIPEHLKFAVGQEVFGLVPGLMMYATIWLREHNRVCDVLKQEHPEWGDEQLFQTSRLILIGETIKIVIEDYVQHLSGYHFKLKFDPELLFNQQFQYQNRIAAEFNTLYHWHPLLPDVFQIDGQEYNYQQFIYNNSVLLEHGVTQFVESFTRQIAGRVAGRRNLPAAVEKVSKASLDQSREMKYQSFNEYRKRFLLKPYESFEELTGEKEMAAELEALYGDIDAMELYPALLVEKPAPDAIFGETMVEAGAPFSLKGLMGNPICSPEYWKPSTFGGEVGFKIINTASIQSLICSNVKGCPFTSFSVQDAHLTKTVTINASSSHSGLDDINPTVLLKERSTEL
Assay: COX (ovine) inhibitor screening kit
Type: biochemical

| Compound | IC50 [µM] |
| --- | --- |
| COc1cc(OC)c2c(O)c3c(=O)cc(C)oc3c(-c3c(O)cc4cc5c(c(O)c4c3OC)C(=O)CC(C)(O)O5)c2c1 (stereo not drawn) [compound 3, aurasperone F] | 11.1 |
| COc1cc(OC)c2c(O)c3c(c(-c4c(O)cc5cc6c(c(O)c5c4OC)C(=O)CC(C)(O)O6)c2c1)OC(C)(O)CC3=O (stereo not drawn) [compound 6, aurasperone C] | 4.2 |
| COc1cc(OC)c2c(O)c3c(=O)cc(C)oc3c(-c3c(O)cc4cc(O)c5c(=O)cc(C)oc5c4c3OC)c2c1 [compound 8, asperpyrone A] | 6.4 |
